Assay results from US9433663B2, “Mobilization of hematopoietic stem cells” (Children's Hospital Medical Center, priority 2008, dated 2016).

Key:
Rac = Rac (Homo sapiens, UniProt P63000); experiment: nucleotide exchange: Tiam-induced exchange of mant-GDP with Rac; format: biochemical
From the text: For example, even at 10 times the IC50 of Cdc42, a 50% inhibition of the association of mant-GDP with Rac or Rho was not achieved.

Rac1 = target: T1, Rac1 (Mus musculus, UniProt P63001); experiment: Rho GTPase effector pull-down in murine LDBM cells, Rac1; format: cell-based; conditions: parallel pull-down assay
T1 construct: endogenous in cells; host or cells: murine LDBM cells
Procedure: To analyze the effects of CASIN on the formation of active GTP-bound Cdc42, RhoA, and Rac1, effector pulldown assays were carried out as described previously. Cdc42GAP^−/− MEF, LDBM, CD34^+ hCB cells were treated with CASIN at doses of 5-20 μM in parallel with vehicle control for 2 hrs after overnight starvation, and stimulated with cytokines subsequently. And then cells were lysed in a buffer containing 20 mM Tris-HCL (pH 7.6), 100 mM NaCl, 1% Triton X-100, 10 mM MgCl2, 2 mM NaF, and Protease inhibitor cocktail (Roche Diagnostics). Lysates were incubated with GST-P21-binding domain of PAK1 for RAC1-GTP and Cdc42-GTP, and GST-RBD domain of Rhotekin for RhoA-GTP respectively. Both bound- and unbound-form of Rho GTPases were probed by immunoblotting with antibodies specific for Rac1 (BD biosciences), Cdc42 (BD biosciences), and RhoA (cell signaling).

N-RasMA93 cells = experiment: directional migration of N-RasMA93 leukemia cells towards SDF-1α (transwell); format: cell-based, human; conditions: in vitro
Procedure: FIG. 5B. Migration of leukemia cells towards SDF-1α without or with CASIN pre-treatment at doses of 5 and 10 μM was determined by transwell assays.
Like normal HSCs, their malignant counterpart, leukemia initiating cells (LICs) reside in their BM niches that provide the structural and physiological conditions supporting their survival and growth. LICs are resistant to traditional chemotherapy by interacting with their BM microenvironment, which are the culprits of leukemia relapses after a period of remission induced by chemotherapy. Detachment of LICs from their niche by CASIN would be a valuable supplementary therapy to the traditional cancer therapies (e.g., chemotherapies). First of all, in vitro effects of CASIN were examined in adhesion, migration, and F-actin polymerization of LICs, each of which is independently important for the retention of LICs in BM niches. Retroviral transduction of an MLL-AF9 fusion cDNA together with N-Ras oncogene into normal human CD34^+cord blood cells led to the establishment of cultures of N-Ras-MA93 cells that can initiate acute myeloid leukemia in NOG mice. […] To address it, a human AML model was set up by transplanting N-RasMA93 cells into NOG mice intravenously.

murine HSCs = experiment: Example 7 competitive repopulating assay of mobilized HSCs; format: in vivo, mice; conditions: competitive repopulating experiments, CASIN-mobilized C57Bl/6 donors
From the text: Although mobilization of HPC may be of use for short-term repopulation in a transplant setting, HSCs are required for long-term repopulation. To assess mobilization effect of CASIN on murine HSCs, a competitive repopulating assay is used. Basically, donor cells are harvested from peripheral blood of C57Bl/6 mice (CD45.2) after mobilization with CASIN or control medium. BM cells from nonirradiated B6.BoyJ (CD45.1) mice are served as competitor cells. Dilutions of donor blood cells from mobilized C57Bl/6 mice that contain long-term repopulating (LTR) cells compete with marrow cells of recipient B6.BoyJ mice at ratio of 3:1, 2:1, and 1:1 for engraftment in lethally-irradiated recipients. Donor chimerism is assessed using CD45 congenic markers by flow cytometry at 1, 2, 3, and 4 months posttransplantation. […] Donor chimerism again is assessed in the secondary mice based on the CD45 congenic markers.
The mobilization effect of CASIN on HSCs in comparison or combination with G-CSF is assessed under the following four mobilization groups: (1) Control medium mobilization group; (2) CASIN mobilization group; (3) G-CSF mobilization group (G-CSF: twice a day for 2 days); (4) CASIN plus G-CSF (twice a day for 2 days) mobilization group. […] The mobilization effects under different groups are analyzed based on the chimerism of donor-derived cells.

[1] = tested on: PIP2 induced F-actin assembly; conditions: PIP2 induced F-actin assembly in xenopus egg extracts; read-out: IC50 (dose required to inhibit the maximum polymerization rate by 50%); cited from earlier work

OCCNC1CCCc2c1[nH]c1ccc(-c3ccccc3)cc21 (stereo not drawn) [CASIN]
Tiam induced nucleotide exchange of mant-GDP with Rac (Rac; FIG. 6): did not affect | inhibition of the association of mant-GDP with Rac (Rac; at 10 times the IC50 of Cdc42): < 50% | Rac1 activity (Rac1): no effects | directional migration capacity of N-RasMA93 cells (N-RasMA93 cells): significantly impaired | engraftment of donor derived cells in recipient B6.BoyJ mice (murine HSCs): significant engraftment of donor derived cells in a dilution-dependent pattern | IC50 [1]: 2 µM
